Experimental data taken from patent EP3254699B1, “SOLID DISPERSION CONTAINING DUTASTERIDE, AND COMPOSITION CONTAINING SAME” (Whanin Pharmaceutical. Co., Ltd., priority 2015, dated 2016).
Read-outs that look alike come from different tables or passages of the source.

Columns and labels:
[1] = cited from earlier work
[2] = Solubility of dutasteride: powder suspended in water at the supersaturation concentration of 1 mg/ml, 0.45 um filtering, HPLC; type: physicochemical; conditions: raw material of dutasteride itself, compared in Experimental Example 4
Protocol: Alpha-cyclodextrin, beta-cyclodextrin, gamma-cyclodextrin and hydroxypropyl-beta-cyclodextrin were dissolved in water, respectively, and dutasteride was dissolved in the same amount of ethanol. Then, the two liquids were mixed to form an inclusion complex. In this case, the weight ratio of dutasteride and cyclodextrin was 1:100. The inclusion complex of cyclodextrin and dutasteride in the form of powder was obtained from the mixture solution of ethanol and distilled water through a drying process, followed by suspension in water at the supersaturation concentration of 1 mg/ml. The solubility was measured with HPLC after 0.45 um filtering. The analysis conditions and the result of solubility are as shown below.
• Column: Zobrax SB-Phenyl (150 mm x 3.0 mm, 3.5 um) or a column equivalent thereto • Mobile phase: Mixture liquid of acetonitrile and purified water (55:45, v/v) • Wavelength of detection: UV, 240 nm • Amount of injection: 50 uL • Flow rate: 0.5 mL/min
Gamma-cyclodextrin was dissolved in water, and dutasteride, polyvinyl pyrrolidone and gelucire (macrogol glyceride) were dissolved in the same amount of ethanol. Then, the experiment was performed as in Experimental Example 1 to evaluate the solubility of dutasteride.

For `C[C@]12C=CC(=O)N[C@@H]1CC[C@@H]1[C@@H]2CC[C@]2(C)[C@@H](C(=O)Nc3cc(C(F)(F)F)ccc3C(F)(F)F)CC[C@@H]12` [dutasteride], the Solubility of dutasteride ([1]; in ethanol) is listed as 44 mg/mL, the Solubility of dutasteride ([1]; in methanol) is listed as 64 mg/mL and the Solubility of dutasteride ([1]; in polyethylene glycol 400) is listed as 3 mg/mL. For the same compound, the Solubility of dutasteride ([1]; in water) was “poorly soluble” and the Solubility of dutasteride [2] was “not detected”.
